The record followed here is patent US9932338B2, “Compounds having muscarinic receptor antagonist and BETA2 adrenergic receptor agonist activity” (CHIESI FARMACEUTICI S.P.A., priority 2015, dated 2018).

The pKi is the negative decadic logarithm of the Ki, by convention in mol/L.

Structures are written as SMILES. pKi: −log10 of the molar value.

The target in one experiment is T1, Human M3 receptor (Homo sapiens, UniProt P20309).
T1 construct: purchased Perkin Elmer
Put plainly: M3 receptor radioligand binding assay. The conditions noted are these: human M3 receptor membranes, [N-methyl-3H] scopolamine methyl chloride; Ki from IC50 by Cheng and Prusoff; read-out: M3 binding affinity (Ki class). As to the method:
Example. M3 Receptor Radioligand Binding Assay
The assay was carried out in 96-well polypropylene plates in a volume of 250 ul. […] The final assay concentration of DMSO was 0.5% (v/v). The plates were sealed and incubated for 2 hours at room temperature on an orbital shaker (slow speed). Membranes were harvested onto 96-well unifilter GF/C filter plates pre-treated with 0.5% polyethyleneimine (v/v), using a filter manifold, washed four times with 200 μl of assay buffer. The plates were dried before addition of 50 μl of microscint-0, sealed then read in a Trilux Microbeta scintillation counter. IC50 values are determined from competition curves using a non-linear curve fitting program. Ki values were calculated from IC50 values by the Cheng and Prusoff equation.

The target in a further experiment is T2, Human β2 adrenoceptor (Homo sapiens, UniProt P07550).
T2 construct: purchased Perkin Elmer
T2 sequence (P07550 whole entry): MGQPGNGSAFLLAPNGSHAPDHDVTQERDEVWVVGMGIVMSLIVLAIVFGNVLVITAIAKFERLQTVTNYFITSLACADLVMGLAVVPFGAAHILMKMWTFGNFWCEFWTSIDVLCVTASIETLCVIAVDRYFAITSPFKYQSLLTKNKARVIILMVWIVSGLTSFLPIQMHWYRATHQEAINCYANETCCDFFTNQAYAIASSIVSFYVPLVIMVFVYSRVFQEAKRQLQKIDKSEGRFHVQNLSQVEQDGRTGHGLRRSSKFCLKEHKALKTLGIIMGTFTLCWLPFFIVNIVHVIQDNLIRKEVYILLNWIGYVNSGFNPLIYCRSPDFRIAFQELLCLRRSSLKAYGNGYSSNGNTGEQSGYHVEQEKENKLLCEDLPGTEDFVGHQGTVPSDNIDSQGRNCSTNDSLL
Put plainly: β2 adrenoceptor radioligand binding assay. The conditions noted are these: human β2 adrenoceptor membranes, 125-I cyanopindolol; Ki from IC50 by Cheng and Prusoff; read-out: B2 binding affinity (Ki class). The procedure: Example. β2 Adrenoceptor Radioligand Binding Assay
Human β2 adrenoceptor membranes (7.5 ug/well) from Perkin Elmer were incubated with 0.3 nM 125-I Cyanopindolol with or without test compounds, or a saturating concentration of s-propranolol (2 μM) for the determination of non-specific binding. The assay was carried out in 96-well polypropylene plates in a volume of 200 ul. The assay buffer used was 25 mM HEPES, 0.5% BSA (w/v), 1 mM EDTA, 0.02% ascorbic acid (v/v), (pH 7.4). The final assay concentration of DMSO was 0.5% (v/v). The plates were sealed and incubated for 1 hour at room temperature on an orbital shaker (slow speed). Membranes were harvested onto 96-well unifilter GF/C filter plates pre-treated with 0.5% polyethyleneimine (v/v), using a filter manifold, washed six times with 200 μl of wash buffer containing 10 mM HEPES and 500 mM NaCl. The plates were dried before addition of 50 μl of microscint-0, sealed then read in a Trilux Microbeta scintillation counter. IC50 values are determined from competition curves using a non-linear curve fitting program. Ki values were calculated from IC50 values by the Cheng and Prusoff equation.

T1 sequence (P20309 whole entry): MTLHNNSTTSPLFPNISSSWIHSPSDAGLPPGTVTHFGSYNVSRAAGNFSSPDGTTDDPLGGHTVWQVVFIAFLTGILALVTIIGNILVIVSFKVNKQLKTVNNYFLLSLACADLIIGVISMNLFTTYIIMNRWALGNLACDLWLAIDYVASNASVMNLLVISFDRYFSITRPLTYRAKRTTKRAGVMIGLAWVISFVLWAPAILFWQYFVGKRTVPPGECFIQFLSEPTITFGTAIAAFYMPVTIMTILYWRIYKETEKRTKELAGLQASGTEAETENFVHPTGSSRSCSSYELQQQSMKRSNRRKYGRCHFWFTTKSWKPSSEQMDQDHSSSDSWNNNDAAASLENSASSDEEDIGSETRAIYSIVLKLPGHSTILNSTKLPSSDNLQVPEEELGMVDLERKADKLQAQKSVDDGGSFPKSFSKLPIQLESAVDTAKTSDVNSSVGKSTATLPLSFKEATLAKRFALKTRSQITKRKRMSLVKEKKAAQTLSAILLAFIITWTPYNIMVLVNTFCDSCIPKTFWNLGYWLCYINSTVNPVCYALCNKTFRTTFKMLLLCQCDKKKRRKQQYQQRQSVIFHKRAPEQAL

For the molecule `O=C(NC1(C(=O)OCC2CCN(Cc3ccco3)CC2)CCc2ccccc21)c1cccc(OCCCCCCNC[C@H](O)c2ccc(O)c3[nH]c(=O)ccc23)c1` (stereo partly drawn) [Compound 10, (1-(furan-2-ylmethyl)piperidin-4-yl)methyl 1-(3-((6-(((R)-2-hydroxy-2-(8-hydroxy-2-oxo-1,2-dihydroquinolin-5-yl)ethyl)amino)hexyl)oxy)benzamido)-2,3-dihydro-1H-indene-1-carboxylate], the pKi at Human M3 receptor is 8.00 to 9.00; on Human β2 adrenoceptor it was under 8.00.
For `O=C(NC1(C(=O)OCC2CCN(Cc3cccc(O)c3)CC2)CCc2ccccc21)c1cccc(OCCCCCCNC[C@H](O)c2ccc(O)c3[nH]c(=O)ccc23)c1` (stereo partly drawn) [Compound 11, (1-(3-hydroxybenzyl)piperidin-4-yl)methyl 1-(3-((6-(((R)-2-hydroxy-2-(8-hydroxy-2-oxo-1,2-dihydroquinolin-5-yl)ethyl)amino)hexyl)oxy)benzamido)-2,3-dihydro-1H-indene-1-carboxylate], the pKi is 8.00 to 9.00 at Human M3 receptor and under 8.00 at Human β2 adrenoceptor.
Consider `O=C(NC1(C(=O)O[C@H]2CN3CCC2CC3)CCc2ccccc21)c1cccc(COCCCCNC[C@H](O)c2ccc(O)c3[nH]c(=O)ccc23)c1` (stereo partly drawn) [Compound 12, (R)-quinuclidin-3-yl 1-(3-((4-(((R)-2-hydroxy-2-(8-hydroxy-2-oxo-1,2-dihydroquinolin-5-yl)ethyl)amino)butoxy)methyl)benzamido)-2,3-dihydro-1H-indene-1-carboxylate], for which the pKi was 8.00 to 9.00 at Human M3 receptor and under 8.00 on Human β2 adrenoceptor.
In the case of `O=C(NC1(C(=O)O[C@H]2CN3CCC2CC3)Cc2ccccc2C1)c1cccc(OCCCCCNC[C@H](O)c2ccc(O)c3[nH]c(=O)ccc23)c1` [Compound 13, (R)-quinuclidin-3-yl 2-(3-((5-(((R)-2-hydroxy-2-(8-hydroxy-2-oxo-1,2-dihydroquinolin-5-yl)ethyl)amino)pentyl)oxy)benzamido)-2,3-dihydro-1H-indene-2-carboxylate], the negative-log Ki (pKi) on Human M3 receptor is over 9.00; on Human β2 adrenoceptor, 8.00 to 9.00.
On the same counts, the results for `O=C(NCCCCNC[C@H](O)c1ccc(O)c2[nH]c(=O)ccc12)c1ccc(CNC2(C(=O)O[C@H]3CN4CCC3CC4)Cc3ccccc3C2)s1` [Compound 14, (R)-quinuclidin-3-yl 2-(((5-((4-(((R)-2-hydroxy-2-(8-hydroxy-2-oxo-1,2-dihydroquinolin-5-yl)ethyl)amino)butyl)carbamoyl)thiophen-2-yl)methyl)amino)-2,3-dihydro-1H-indene-2-carboxylate] are over 9.00 and 8.00 to 9.00.
For `O=C(NCCCCNC[C@H](O)c1ccc(O)c2[nH]c(=O)ccc12)c1ccc(CNC2(C(=O)OCC3CCN(Cc4cccc(O)c4)CC3)CCc3ccccc32)s1` (stereo partly drawn) [Compound 15, (1-(3-hydroxybenzyl)piperidin-4-yl)methyl 1-(((5-((4-(((R)-2-hydroxy-2-(8-hydroxy-2-oxo-1,2-dihydroquinolin-5-yl)ethyl)amino)butyl)carbamoyl)thiophen-2-yl)methyl)amino)-2,3-dihydro-1H-indene-1-carboxylate], in that order: over 9.00 and 8.00 to 9.00.
For `O=C(NCCCCNC[C@H](O)c1ccc(O)c2[nH]c(=O)ccc12)c1ccc(CNC2(C(=O)OCC3CCN(Cc4ccccc4)CC3)CCc3ccccc32)s1` (stereo partly drawn) [Compound 16, (1-benzylpiperidin-4-yl)methyl 1-(((5-((4-(((R)-2-hydroxy-2-(8-hydroxy-2-oxo-1,2-dihydroquinolin-5-yl)ethyl)amino)butyl)carbamoyl)thiophen-2-yl)methyl)amino)-2,3-dihydro-1H-indene-1-carboxylate], the pKi was over 9.00 at Human M3 receptor and 8.00 to 9.00 on Human β2 adrenoceptor.
For `O=C(NCCCCNC[C@H](O)c1ccc(O)c2[nH]c(=O)ccc12)c1ccc(CNC2(C(=O)OCC3CCN(Cc4cccs4)CC3)CCc3ccccc32)s1` (stereo partly drawn) [Compound 17, (1-(thiophen-2-ylmethyl)piperidin-4-yl)methyl 1-(((5-((4-(((R)-2-hydroxy-2-(8-hydroxy-2-oxo-1,2-dihydroquinolin-5-yl)ethyl)amino)butyl)carbamoyl)thiophen-2-yl)methyl)amino)-2,3-dihydro-1H-indene-1-carboxylate], in that order: over 9.00 and under 8.00.
On the same counts, the results for `O=C(Cc1ccc(CC(=O)NC2(C(=O)O[C@H]3CN4CCC3CC4)CCc3ccccc32)cc1)Nc1ccc(CNC[C@H](O)c2ccc(O)c3[nH]c(=O)ccc23)cc1` (stereo partly drawn) [Compound 18, (R)-quinuclidin-3-yl 1-(2-(4-(2-((4-((((R)-2-hydroxy-2-(8-hydroxy-2-oxo-1,2-dihydroquinolin-5-yl)ethyl)amino)methyl)phenyl)amino)-2-oxoethyl)phenyl)acetamido)-2,3-dihydro-1H-indene-1-carboxylate] are 8.00 to 9.00 and under 8.00.
For the molecule `O=C(NC1(C(=O)O[C@H]2CN3CCC2CC3)CCc2ccccc21)c1ccc(OCc2ccc(CNC[C@H](O)c3ccc(O)c4[nH]c(=O)ccc34)cc2)cc1` (stereo partly drawn) [Compound 19, (R)-quinuclidin-3-yl 1-(4-((4-((((R)-2-hydroxy-2-(8-hydroxy-2-oxo-1,2-dihydroquinolin-5-yl)ethyl)amino)methyl)benzyl)oxy)benzamido)-2,3-dihydro-1H-indene-1-carboxylate], the pKi on Human M3 receptor was 8.00 to 9.00; at Human β2 adrenoceptor, under 8.00.
For `O=C(O[C@H]1CN2CCC1CC2)C1(NCc2cccc(OCc3ccc(CNC[C@H](O)c4ccc(O)c5[nH]c(=O)ccc45)cc3)c2)CCc2ccccc21` (stereo partly drawn) [Compound 20, (R)-quinuclidin-3-yl 1-((3-((4-((((R)-2-hydroxy-2-(8-hydroxy-2-oxo-1,2-dihydroquinolin-5-yl)ethyl)amino)methyl)benzyl)oxy)benzyl)amino)-2,3-dihydro-1H-indene-1-carboxylate], in that order: 8.00 to 9.00 and over 9.00.
For `O=C(O[C@H]1CN2CCC1CC2)C1(NCc2cccc(OCc3cccc(OCCCCNC[C@H](O)c4ccc(O)c5[nH]c(=O)ccc45)c3)c2)CCc2ccccc21` (stereo partly drawn) [Compound 21, (R)-quinuclidin-3-yl 1-((3-((3-(4-(((R)-2-hydroxy-2-(8-hydroxy-2-oxo-1,2-dihydroquinolin-5-yl)ethyl)amino)butoxy)benzyl)oxy)benzyl)amino)-2,3-dihydro-1H-indene-1-carboxylate], in that order: over 9.00 and over 9.00.
